Assay results taken from PMC6792352, “Limited Chemical Structural Diversity Found to Modulate Thyroid Hormone Receptor in the Tox21 Chemical Library” (Environmental Health Perspectives, 2019).
Where a name gives a salt, the structure may show the parent alone.

Test: in vitro
Details: rat, gh3-tre-luc cells

## O=C(/C=C/c1ccccc1)OC/C=C/c1ccccc1 [3-Phenyl-2-propen-1-yl 3-phenylacrylate]
AC50 (uM) modified / 1000
  CC50 at 24 h: > 90 µM

## CC(CCl)OP(=O)(OC(C)CCl)OC(C)CCl (stereo not drawn) [Tris(2-chloroisopropyl)phosphate]
AC50 (uM) modified / 1000
  CC50 at 24 h: > 90 µM

## Cc1cccc(C#N)c1 [3-Methylbenzonitrile]
AC50 (uM) modified / 1000, Tox21_110001=Tox21_200853, viability, 1 nM T3 present, 24 h
  CC50 at 24 h: > 90 µM

## Cn1ccc2cc3c(cc21)CCN3C(=O)Nc1cccnc1 [SB 206553 hydrochloride]
AC50 (uM) modified / 1000
  CC50 at 24 h: > 50 µM

## CC(C)C(=O)Nc1ccc([N+](=O)[O-])c(C(F)(F)F)c1 [Flutamide]
AC50 (uM) modified / 1000
  CC50 at 24 h: 88.9 µM

## O=C(CCN1CCN2CCCC2C1)N1c2ccccc2Sc2ccc(Cl)cc21 (stereo not drawn) [Azaclorzine]
AC50 (uM) modified / 1000
  CC50 at 24 h: 14.6 µM

## CCCCCCOC(=O)CCC [Hexyl butyrate]
AC50 (uM) modified / 1000
  CC50 at 24 h: > 90 µM

## CCCCCC#CC(=O)OC [Methyl 2-octynoate]
AC50 (uM) modified / 1000
  CC50 at 24 h: > 90 µM

## CS(=O)(=O)Cl [Methanesulfonyl chloride]
AC50 (uM) modified / 1000
  CC50 at 24 h: > 90 µM

## CCOC(=O)C(C)(C)C [Ethylpivalate]
AC50 (uM) modified / 1000
  CC50 at 24 h: > 90 µM

## CCCCCCCCCCCCCC[P+](CCCCCC)(CCCCCC)CCCCCC [Trihexyltetradecylphosphonium chloride]
AC50 (uM) modified / 1000
  CC50 at 24 h: 5.15 µM

## Oc1ccc(C2(c3ccc(O)cc3)CC3CC2C2CCCC32)cc1 (stereo not drawn) [4,4'-Octahydro-1H-4,7-methanoindene-5,5-diyldiphenol]
AC50 (uM) modified / 1000
  CC50 at 24 h: 27.4 µM

## C=CCOCC(O)CCl (stereo not drawn) [Allyl 3-chloro-2-hydroxypropyl ether]
AC50 (uM) modified / 1000
  CC50 at 24 h: > 90 µM

## Nc1ccc2c(O)cc(S(=O)(=O)O)cc2c1 [7-Amino-4-hydroxynaphthalene-2-sulfonic acid]
AC50 (uM) modified / 1000
  CC50 at 24 h: 89.3 µM

## C[C@]12CCC(=O)C=C1CC[C@@H]1[C@@H]2C(=O)C[C@@]2(C)[C@H]1CC[C@]2(O)C(=O)CO [Cortisone]
AC50 (uM) modified / 1000
  CC50 at 24 h: > 90 µM

## COCCOCCOCCOCCOC [2,5,8,11,14-Pentaoxapentadecane]
AC50 (uM) modified / 1000
  CC50 at 24 h: > 90 µM

## O=S(=O)(Oc1ccc(Cl)cc1)c1ccc(Cl)cc1 [Chlorfenson]
AC50 (uM) modified / 1000
  CC50 at 24 h: > 90 µM

## BrCCBr [1,2-Dibromoethane]
AC50 (uM) modified / 1000, Tox21_110001=Tox21_201427, viability, 1 nM T3 present, 24 h
  CC50 at 24 h: > 90 µM

## COc1ccc(/C=C/c2cc(OC)cc(=O)o2)cc1 [Yangonin]
AC50 (uM) modified / 1000
  CC50 at 24 h: > 40 µM

## COP(=S)(OC)Oc1ccc(S(=O)(=O)N(C)C)cc1 [Famphur]
AC50 (uM) modified / 1000, Tox21_110001=Tox21_111946, viability, 1 nM T3 present, 24 h
  CC50 at 24 h: > 50 µM
AC50 (uM) modified / 1000, Tox21_110001=Tox21_301907, viability, 1 nM T3 present, 24 h
  CC50 at 24 h: > 90 µM

## CCN(CC)CCOc1ccc2nc(N(C)C)sc2c1 [Diamthazole]
AC50 (uM) modified / 1000
  CC50 at 24 h: > 50 µM

## O=C1C=CC(=O)N1c1ccccc1 [1-Phenyl-1H-pyrrole-2,5-dione]
AC50 (uM) modified / 1000
  CC50 at 24 h: 5.48 µM

## O=C(O)CF [Sodium fluoroacetate]
AC50 (uM) modified / 1000
  CC50 at 24 h: > 90 µM

## CC(C)(C#N)N=NC(C)(C)C#N [Azobisisobutyronitrile]
AC50 (uM) modified / 1000
  CC50 at 24 h: > 90 µM

## OC(c1ccc(Cl)cc1)(c1ccc(Cl)cc1)C(Cl)(Cl)Cl [Dicofol]
AC50 (uM) modified / 1000
  CC50 at 24 h: 79.5 µM

## O=C(O)CCCC/C=C(\c1ccccc1)c1cccnc1 [Isbogrel]
AC50 (uM) modified / 1000
  CC50 at 24 h: > 50 µM

## CC(=O)OCC(=O)[C@@]1(O)CC[C@H]2[C@@H]3CCC4=CC(=O)C=C[C@]4(C)[C@H]3[C@@H](O)C[C@@]21C [Prednisolone acetate]
AC50 (uM) modified / 1000
  CC50 at 24 h: > 50 µM

## CCCCN(CCCC)C(=S)SSC(=S)N(CCCC)CCCC [Tetrabutylthiuram disulfide]
AC50 (uM) modified / 1000
  CC50 at 24 h: > 90 µM

## O=CC1CC=CCC1 (stereo not drawn) [3-Cyclohexene-1-carboxaldehyde]
AC50 (uM) modified / 1000
  CC50 at 24 h: > 90 µM

## C[C@]12C=CC(=O)C=C1CC[C@@H]1[C@@H]2[C@@H](O)C[C@@]2(C)[C@H]1CC[C@]2(O)C(=O)COC(=O)CCC(=O)O [Prednisolone 21-hemisuccinate]
AC50 (uM) modified / 1000
  CC50 at 24 h: > 50 µM

## Cc1ccccc1S(N)(=O)=O [o-Toluenesulfonamide]
AC50 (uM) modified / 1000
  CC50 at 24 h: > 90 µM

## OCC1(CO)COCOC1 [1,3-Dioxane-5,5-diyldimethanol]
AC50 (uM) modified / 1000
  CC50 at 24 h: > 90 µM

## NC(=O)COCCN1CCN(C(c2ccccc2)c2ccc(Cl)cc2)CC1 (stereo not drawn) [Cetirizine amide dihydrochloride]
AC50 (uM) modified / 1000
  CC50 at 24 h: 21.7 µM

## C=CC(=O)OCC(C)C [Isobutyl acrylate]
AC50 (uM) modified / 1000
  CC50 at 24 h: > 90 µM

## CC(=O)c1ccc2c(c1)N(CCCN1CCN(CCO)CC1)c1ccccc1S2 [Acetophenazine dimaleate]
AC50 (uM) modified / 1000
  CC50 at 24 h: 16.5 µM

## CC(C)[C@H](N)C(=O)OCC(CO)OCn1cnc2c(=O)nc(N)[nH]c21 (stereo partly drawn) [Valganciclovir hydrochloride]
AC50 (uM) modified / 1000
  CC50 at 24 h: > 50 µM

## Nc1c(Cl)c(Cl)c(Cl)c(Cl)c1Cl [Pentachloroaniline]
AC50 (uM) modified / 1000, Tox21_110001=Tox21_400021, viability, 1 nM T3 present, 24 h
  CC50 at 24 h: > 90 µM

## S=C=S [Carbon disulfide]
AC50 (uM) modified / 1000
  CC50 at 24 h: > 90 µM

## CCC(C)C1CCCCC1=O (stereo not drawn) [2-sec-Butylcyclohexanone]
AC50 (uM) modified / 1000
  CC50 at 24 h: > 90 µM

## CCSCc1ccccc1OC(=O)NC [Ethiofencarb]
AC50 (uM) modified / 1000, Tox21_110001=Tox21_301356, viability, 1 nM T3 present, 24 h
  CC50 at 24 h: > 90 µM

## CCCCCCCN(CC)CCCC(O)c1ccc(NS(C)(=O)=O)cc1 (stereo not drawn) [Ibutilide fumarate]
AC50 (uM) modified / 1000
  CC50 at 24 h: 21.5 µM

## CCCC(C)CO (stereo not drawn) [2-Methyl-1-pentanol]
AC50 (uM) modified / 1000
  CC50 at 24 h: > 90 µM

## O=C(CCC1CCN(Cc2ccccc2)CC1)c1ccc2c(c1)NCCCC2 [Zanapezil fumerate]
AC50 (uM) modified / 1000
  CC50 at 24 h: > 50 µM

## CC(C)Oc1ccccc1O [2-Isopropoxyphenol]
AC50 (uM) modified / 1000
  CC50 at 24 h: > 90 µM

## NC(=O)CCCCC1CCSS1 (stereo not drawn) [alpha-Lipoic acid amide]
AC50 (uM) modified / 1000
  CC50 at 24 h: > 50 µM

## Cc1cc(C)c(C(=O)O)c(C)c1 [2,4,6-Trimethylbenzoic acid]
AC50 (uM) modified / 1000
  CC50 at 24 h: > 90 µM

## O=C(OCCCCCOC(=O)c1ccccc1)c1ccccc1 [Pentane-1,5-diyl dibenzoate]
AC50 (uM) modified / 1000
  CC50 at 24 h: > 90 µM

## N#CC1(N2CCCCC2)CCCCC1 [1-Piperidinocyclohexanecarbonitrile]
AC50 (uM) modified / 1000, Tox21_110001=Tox21_111849, viability, 1 nM T3 present, 24 h
  CC50 at 24 h: > 50 µM

## CCCCN1C[C@H](O)[C@@H](O)[C@H](O)[C@H]1CO [Miglustat]
AC50 (uM) modified / 1000
  CC50 at 24 h: > 50 µM

## OCC(O)CCl (stereo not drawn) [3-Chloro-1,2-propanediol]
AC50 (uM) modified / 1000, Tox21_110001=Tox21_202262, viability, 1 nM T3 present, 24 h
  CC50 at 24 h: > 90 µM

## CC(=O)O[C@H]1C[C@@H]2CC[C@@H]3[C@H](CC[C@@]4(C)[C@H]3C[C@H]([N+]3(C)CCCCC3)[C@@H]4OC(C)=O)[C@@]2(C)C[C@@H]1N1CCCCC1 [Vecuronium bromide]
AC50 (uM) modified / 1000
  CC50 at 24 h: > 50 µM

## CC(=O)/C=C/c1ccccc1 [Methyl trans-styryl ketone]
AC50 (uM) modified / 1000, Tox21_110001=Tox21_301598, viability, 1 nM T3 present, 24 h
  CC50 at 24 h: > 90 µM

## COc1ccc(C(=O)c2ccccc2)c(O)c1 [2-Hydroxy-4-methoxybenzophenone]
AC50 (uM) modified / 1000
  CC50 at 24 h: > 50 µM

## O=C(Oc1ccccc1)c1ccc2ccccc2c1O [Phenyl 1-hydroxy-2-naphthoate]
AC50 (uM) modified / 1000
  CC50 at 24 h: > 90 µM

## Cc1occc1SSc1ccoc1C [Bis(2-methyl-3-furyl)disulfide]
AC50 (uM) modified / 1000
  CC50 at 24 h: > 90 µM

## Fc1ccccc1[C@@H](F)COC1CCC(Nc2ncnc3[nH]ncc23)CC1 (stereo partly drawn) [MK-968]
AC50 (uM) modified / 1000
  CC50 at 24 h: 82.7 µM

## COc1ccc2cc3[n+](cc2c1OC)CCc1cc2c(cc1-3)OCO2 [Berberine chloride]
AC50 (uM) modified / 1000
  CC50 at 24 h: 88.5 µM

## CC(Oc1ccccc1)C(=O)N[C@@H]1C(=O)N2[C@@H]1SC(C)(C)[C@@H]2C(=O)O (stereo partly drawn) [Phenethicillin potassium]
AC50 (uM) modified / 1000
  CC50 at 24 h: > 20 µM

## N#C[C@@H]1CC(F)(F)CN1C(=O)CNC1CC2CCC(C1)N2c1ncccn1 (stereo partly drawn) [SSR162369]
AC50 (uM) modified / 1000
  CC50 at 24 h: > 90 µM

## CCCCCCCCCOC(=O)c1ccc(O)cc1 [Nonylparaben]
AC50 (uM) modified / 1000
  CC50 at 24 h: 21.8 µM

## CCCCCCCCCCC(CO)CCCCCCCC (stereo not drawn) [2-Octyl-1-dodecanol]
AC50 (uM) modified / 1000
  CC50 at 24 h: > 90 µM

## CN(C)CCC=C1c2ccccc2C=Cc2ccccc21 [Cyclobenzaprine hydrochloride]
AC50 (uM) modified / 1000
  CC50 at 24 h: 14.5 µM

## CCCCN(CCO)CCCC [2-(Dibutylamino)ethanol]
AC50 (uM) modified / 1000
  CC50 at 24 h: > 90 µM

## CCN(CC)CCOc1ccccc1OC [Guaiactamine]
AC50 (uM) modified / 1000
  CC50 at 24 h: > 50 µM

## Nc1cc(Cl)cc(Cl)c1 [3,5-Dichloroaniline]
AC50 (uM) modified / 1000
  CC50 at 24 h: > 90 µM

## Cc1ccc(C)c(C)c1 [1,2,4-Trimethylbenzene]
AC50 (uM) modified / 1000
  CC50 at 24 h: > 90 µM

## Oc1cc(Cl)cc(Cl)c1 [3,5-Dichlorophenol]
AC50 (uM) modified / 1000
  CC50 at 24 h: > 90 µM

## CCNC(=O)[C@@H]1CCCN1C(=O)[C@H](CCCNC(=N)N)NC(=O)[C@H](CC(C)C)NC(=O)[C@@H](CC(C)C)NC(=O)[C@H](Cc1ccc(O)cc1)NC(=O)[C@H](CO)NC(=O)[C@H](Cc1c[nH]c2ccccc12)NC(=O)[C@H](Cc1c[nH]cn1)NC(=O)[C@@H]1CCC(=O)N1 [Leuprolide acetate salt]
AC50 (uM) modified / 1000
  CC50 at 24 h: > 50 µM

## O=c1n(CCO)c(=O)n(CCO)c(=O)n1CCO [Tris(2-hydroxyethyl) isocyanurate]
AC50 (uM) modified / 1000
  CC50 at 24 h: > 90 µM

## N[C@H](CC(=O)O)C(=O)O [D-Aspartic acid]
AC50 (uM) modified / 1000
  CC50 at 24 h: > 50 µM

## CC1(C)S[C@@H]2[C@H](NC(=O)[C@H](N)c3ccccc3)C(=O)N2[C@H]1C(=O)OC1OC(=O)c2ccccc21 (stereo partly drawn) [Talampicillin hydrochloride]
AC50 (uM) modified / 1000
  CC50 at 24 h: > 20 µM
